Reference: US11952457B2, “Bioabsorbable resin for additive manufacturing with non-cytotoxic photoinitiator” (Carbon, Inc., priority 2021, dated 2024)

Key:
[1] = versus BAPO; cited from earlier work
[2] = solubility of dye in resin formulation; assay type: physicochemical; settings: final resin formulation (oligomer, PC, DDFD)
Description: The C&D Green Dye #6 is added to the resin to increase the absorbance of the resin for higher resolution printing. […] To mix C&D Green Dye #6 into the resin, the dye is first solubilized in PC at 0.06 wt % at 80° C. The stock solution of 0.06 wt % dye in PC is added to the oligomer to achieve the desired 0.03% concentration in the final resin.
Crystals of the C&D Green Dye #6 may be observed in this resin. C&D Green Dye #6 tends to crystalize in the resin. To prevent crystal aggregation, this resin should be mixed fresh prior to printing.

Row | solubility in the final formulation [2] | Compound | cytotoxicity relative to traditional UV photoinitiators such as BAPO [1]
1 | – | CC1(C)COC(=O)C1=O [DDFD, dihydro-4,4-dimethyl-2,3-furandione] | orders of magnitude less cytotoxic
2 | limited solubility | Cc1ccc(Nc2ccc(Nc3ccc(C)cc3)c3c2C(=O)c2ccccc2C3=O)cc1 [C&D Green Dye #6, 1,4-bis(p-tolylamino)anthraquinone] | –
